Laboratory results as given in patent US20160250121A1, “USE OF MONO ORNITHINE KETOGLUTARATE (MOKG)” (L'OREAL, priority 2013, published 2016).

System: Hair follicles
Assay: Activity of actives on hair follicle growth (cultured scalp hair follicles, elongation by image analysis)
Type: cell-based
Details: for Growth: average elongation as percentage of control group (=100), 6 days of cultivation (5 of treatment)
Protocol: Hair follicles were taken from a single donor's scalp sample and transferred in sterile 24 well plates to be cultivated by using a modified Williams' Medium E. Cultivation took place for six days, while the experimental treatment of the follicles started 24 hours from the beginning of the cultivation. Hair follicles were selected for the experiments after 18 h of cultivation. Only those follicles showing a good vital stage and a growth of not less than 0.2 mm were considered suitable to be maintained in culture. All experimental groups and the control were prepared comprising 12 to 18 follicles, plated in 24-well plates at a density of 3 hair follicles/well. The hair follicles showing evident signs of sufferance during the culture for reasons not dependent on the experimental treatment were excluded from the final analysis.
The treatments consisted of mOKG concentrations varying from 0.001 to 0.1% b.w.
The growth performances observed in the treated hair follicles were compared to a control group cultured in the same culture medium free from OMG.
The experiment was terminated after 6 days of cultivation (5 of treatment). The growth of the hair follicles was studied by microphotography and subsequently determined by image analysis.
The average elongation detected in the experimental groups was expressed as percentage value of the growth performed by the control group. The statistical significance of the effects produced by the treatments was evaluated by means of analysis of variance (ANOVA) according the Duncan's method.

[1] = Conc. 0.001% b.w. in culture medium
[2] = Conc. 0.01% b.w. in culture medium
[3] = Conc. 0.1% b.w. in culture medium

Q: How did the Growth [1] turn out when `Cl.NCCC[C@H](N)C(=O)O` [Ornithine hydrochloride] was run?
A: The Growth was 100%.

Q: What about the Growth [2] of the same molecule?
A: The Growth was 102%.

Q: What about the Growth [3] of the same molecule?
A: Its Growth is 106%.

Q: How did the Growth [1] turn out when `O=C(O)CCC(=O)C(=O)O` [Alpha-ketoglutarate] was run?
A: The Growth was 101%.

Q: What about the Growth [2] of the same molecule?
A: The Growth was 103%.

Q: And the Growth [3]?
A: The Growth was 104%.

Q: With Di Ornithine Ketoglutarate as the molecule, how does the Growth [1] read?
A: The Growth was 101%.

Q: And the Growth [2]?
A: The Growth was 107%.

Q: What about the Growth [3] of the same molecule?
A: The Growth was 116%.

Q: For `NCCC[C@H](N)C(=O)O.O=C(O)CCC(=O)C(=O)O` [Mono Ornithine Ketoglutarate, Mono-Ornithine (alpha-) ketoglutarate], which Growth [1] is on record?
A: Its Growth is 112%.

Q: What about the Growth [2] of the same molecule?
A: Its Growth is 120%.

Q: And the Growth [3]?
A: The Growth was 122%.

Q: And the “Factor between effective concentrations (mOKG 0.001% b.w. vs OKG 0.1% b.w.)” value (mOKG significantly effective at 0.001% b.w. as OKG at 0.1% b.w.)?
A: The value was 100.
